pIC50: −log10 of the molar value.

T1 sequence (Q9GZT9 whole entry): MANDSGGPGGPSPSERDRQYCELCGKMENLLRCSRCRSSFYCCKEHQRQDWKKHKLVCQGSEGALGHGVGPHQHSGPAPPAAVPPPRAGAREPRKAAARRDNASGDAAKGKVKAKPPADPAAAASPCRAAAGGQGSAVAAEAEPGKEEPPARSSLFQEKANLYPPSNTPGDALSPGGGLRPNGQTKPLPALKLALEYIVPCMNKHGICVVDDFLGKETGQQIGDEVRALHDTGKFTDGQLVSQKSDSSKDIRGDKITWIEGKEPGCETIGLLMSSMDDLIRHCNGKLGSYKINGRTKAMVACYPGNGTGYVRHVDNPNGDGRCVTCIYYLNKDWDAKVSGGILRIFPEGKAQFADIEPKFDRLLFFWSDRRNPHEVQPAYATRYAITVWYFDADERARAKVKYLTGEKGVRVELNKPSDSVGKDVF

The experiment addresses T1, HIF PHD2 (Homo sapiens, UniProt Q9GZT9).
T1 construct: FLAG-tagged full length PHD2; FLAG; made in house; host or cells: baculovirus-infected Sf9 cells
The experiment is described as follows: PHD2 inhibition assay (time resolved fluorescence, HIF-1α peptide hydroxylation / VHL detection). The note with it: FLAG-tagged full length PHD2; 0.2 μM 2-oxoglutarate, 0.5 μM HIF-1α peptide. It counts as biochemical. On the procedure: To each well of a 96-well plate was added 1 μL of test compound in DMSO and 20 μl of assay buffer (50 mM Tris pH 7.4/0.01% Tween-20/0.1 mg/ml bovine serum albumin/10 μM ferrous sulfate/1 mM sodium ascorbate/20 μg/ml catalase) containing 0.15 μg/ml FLAG-tagged full length PHD2 expressed in and purified from baculovirus-infected Sf9 cells. After a 30 min preincubation at room temperature, the enzymatic reactions were initiated by the addition of 4 μL of substrates (final concentrations of 0.2 μM 2-oxoglutarate and 0.5 μM HIF-1α peptide biotinyl-DLDLEMLAPYIPMDDDFQL (SEQ ID NO:1)). After 2 hours at room temperature, the reactions were terminated and signals were developed by the addition of a 25 μL quench/detection mix to a final concentration of 1 mM ortho-phenanthroline, 0.1 mM EDTA, 0.5 nM anti-(His)6 LANCE reagent (Perkin-Elmer Life Sciences), 100 nM AF647-labeled streptavidin (Invitrogen), and 2 μg/ml (His)6-VHL complex (S. Tan (2001) Protein Expr. Purif. 21, 224-234). The ratio of time resolved fluorescence signals at 665 and 620 nm was determined; and percent inhibition was calculated relative to an uninhibited control sample run in parallel.
For the compound `COc1ccc(C(NC(=O)c2cnc(C(=O)NCC(=O)O)nc2O)c2ccc(OC)cc2)cc1` [Compound 2-17, 2-(5-(bis(4-methoxyphenyl)methylcarbamoyl)-4-hydroxypyrimidine-2-carboxamido)acetic acid], the pIC50 was 7.70 to 9.30.
The same measure for `CP(=O)(O)c1cnn(-c2ncc(C(=O)NC(c3ccccc3)c3ccccc3)c(O)n2)c1` [Compound 1-1, 1-(5-(benzhydrylcarbamoyl)-4-hydroxypyrimidin-2-yl)-1H-pyrazol-4-yl(methyl)phosphinic acid]: 7.70 to 9.30; for `O=C(O)CNC(=O)c1ncc(C(=O)NCc2ccc3ccccc3c2)c(O)n1` [Compound 2-22, N-({4-hydroxy-5-[(naphthalen-2-ylmethyl)carbamoyl]pyrimidin-2-yl}carbonyl)glycine]: 7.00 to 7.70; for `CP(=O)(O)CNC(=O)c1ncc(C(=O)NC(c2ccccc2)c2ccccc2)c(O)n1` [Compound 2-14, {[({5-[(diphenylmethyl)carbamoyl]-4-hydroxypyrimidin-2-yl}carbonyl)amino]methyl}methylphosphinicacid]: 7.70 to 9.30.
The same measure for `CCOC(=O)CNC(=O)c1ncc(C(=O)NCc2cccc3ccccc23)c(O)n1` [Compound 2-20, Ethyl-2-(4-hydroxy-5-(naphthalen-1-ylmethylcarbamoyl)pyrimidine-2-carboxamido)acetate]: 5.00 to 7.00; for `O=C(O)CCNC(=O)c1ncc(C(=O)NC(c2ccccc2)c2ccccc2)c(O)n1` [Compound 2-11, 3-(5-(benzhydrylcarbamoyl)-4-hydroxypyrimidine-2-carboxamido)propanoic acid]: 7.70 to 9.30.
As for `O=C(O)CNC(=O)c1ncc(C(=O)NC(c2ccc(F)cc2)c2ccc(F)cc2)c(O)n1` [Compound 2-19, 2-(5-(bis(4-fluorophenyl)methylcarbamoyl)-4-hydroxypyrimidine-2-carboxamido) acetic acid], the pIC50 was 7.70 to 9.30.
With `CCOP(C)(=O)CNC(=O)c1ncc(C(=O)NC(c2ccccc2)c2ccccc2)c(O)n1` (stereo not shown) [Compound 2-6, Ethyl {[({5-[(diphenylmethyl)carbamoyl]-4-hydroxypyrimidin-2-yl}carbonyl)amino]methyl}methylphosphinate], the negative-log IC50 (pIC50) was 7.70 to 9.30.
The same measure for `O=C(O)CNC(=O)c1ncc(C(=O)NCc2cccc3ccccc23)c(O)n1` [Compound 2-21, 2-(4-hydroxy-5-(naphthalen-1-ylmethylcarbamoyl)pyrimidine-2-carboxamido)acetic acid]: 7.00 to 7.70; for `O=C(O)CNC(=O)c1ncc(NC(=O)C(c2ccccc2)c2ccccc2)c(O)n1` [Compound 3-1, 2-(5-(2,2-Diphenylacetamido)-4-hydroxypyrimidine-2-carboxamido)acetic acid]: 7.70 to 9.30.
The same measure for `O=C(CNC(=O)c1ncc(C(=O)NC(c2ccccc2)c2ccccc2)c(O)n1)OCc1ccccc1` [Compound 2-7, Benzyl N-({5-[(diphenylmethyl)carbamoyl]-4-hydroxypyrimidin-2-yl}carbonyl)glycinate]: 7.70 to 9.30; for `O=C(NCP(=O)(O)O)c1ncc(C(=O)NC(c2ccccc2)c2ccccc2)c(O)n1` [Compound 2-13, {[({5-[(diphenylmethyl)carbamoyl]-4-hydroxypyrimidin-2-yl}carbonyl)amino]methyl}phosphonicacid]: 7.00 to 7.70.
In turn, `CCOC(=O)CCNC(=O)c1ncc(C(=O)NC(c2ccccc2)c2ccccc2)c(O)n1` [Compound 2-1, Ethyl N-({5-[(diphenylmethyl)carbamoyl]-4-hydroxypyrimidin-2-yl}carbonyl)-β-alaninate] showed a pIC50 of 7.70 to 9.30.
In the case of `COC(=O)CNC(=O)c1ncc(C(=O)NC(c2ccccc2)c2ccccc2)c(O)n1` [Compound 2-3, Methyl N-({5-[(diphenylmethyl)carbamoyl]-4-hydroxypyrimidin-2-yl}carbonyl)glycinate], the negative logarithm of the IC50 (pIC50) is 7.70 to 9.30.
Under `CCOC(=O)CNC(=O)c1ncc(C(=O)NC(c2ccc(F)cc2)c2ccc(F)cc2)c(O)n1` [Compound 2-18, Ethyl 2-(5-(bis(4-fluorophenyl)methylcarbamoyl)-4-hydroxypyrimidine-2-carboxamido)acetate] stands 7.70 to 9.30.
`O=C(O)CNC(=O)c1ncc(C(=O)NC(c2ccccc2)c2ccccc2)c(O)n1` [Compound 2-12, 2-(5-(benzhydrylcarbamoyl)-4-hydroxypyrimidine-2-carboxamido)acetic acid]: the negative logarithm of the IC50 (pIC50) was 7.70 to 9.30.
The same measure for `O=C(NCCS(=O)(=O)O)c1ncc(C(=O)NC(c2ccccc2)c2ccccc2)c(O)n1` [Compound 2-4, 2-[({5-[(diphenylmethyl)carbamoyl]-4-hydroxypyrimidin-2-yl}carbonyl)amino]ethanesulfonic acid]: 7.70 to 9.30; for `CCOC(=O)CNC(=O)c1ncc(C(=O)NC(c2ccccc2)c2ccccc2)c(O)n1` [Compound 2-2, Ethyl N-({5-[(diphenylmethyl)carbamoyl]-4-hydroxypyrimidin-2-yl}carbonyl)glycinate]: 7.70 to 9.30.
Under `CCOP(=O)(CNC(=O)c1ncc(C(=O)NC(c2ccccc2)c2ccccc2)c(O)n1)OCC` [Compound 2-5, Diethyl {[({5-[(diphenylmethyl)carbamoyl]-4-hydroxypyrimidin-2-yl}carbonyl)amino]methyl}phosphonate] stands 7.00 to 7.70.

In general, pIC50 refers to the IC50 on a negative log10 scale, so that one unit is a factor of ten. A low value points to a high IC50.

The values are drawn from US9034851B2, “Substituted pyrimidines” (MERCK SHARP & DOHME CORP., priority 2011, dated 2015).
